Experiments:
[1] = system: ischemic brain stroke patients treated with mechanical thrombectomy; assay: Treatment with uric acid of ischemic brain stroke patients treated with intravenous thrombolysis and mechanical thrombectomy; format: in vivo, humans
Source text: Example 1. Treatment with uric acid of ischemic brain stroke patients treated with intravenous thrombolysis and mechanical thrombectomy.
In total, 45 ischemic brain stroke patients were enrolled in this study and received the combination of thrombolytic treatment (using rt-PA) and mechanical thrombectomy. […] The patients of this study were recruited at eight centres and, in all the cases, the corresponding informed consent was obtained from the patient or its legal representative.
(§1) All patients that were selected for the study received one standard dose ([…]) of rtPA (in the present case, intravenous alteplase) within the 4.5 hours following the brain stroke. During infusion of intravenous alteplase, patients were assigned randomly in a 1:1 proportion to the uric acid group or to the placebo group, so that they received 500 ml of intravenous solution of 1000 mg of uric acid or placebo (physiologic serum comprising 0.1% […] and 5% mannitol), respectively, both contained in glass bottles covered with opaque yellow bags tag in identical manner. Said treatment with uric acid or placebo was applied during 90 minutes.
The mechanical thrombectomy procedure was carried in accordance to the procedure pointed out in the REVASCAT assay (Jovin T G, Chamorro A, Cobo E, de Miguel M A, Molina C A, Rovira A, San Román L, Serena J, Abilleira S, Ribó M, Millán M, Urra X, Cardona P, López-Cancio E, Tomasello A, Castaño C, Blasco J, Aja L, Dorado L, Quesada H, Rubiera M, Hernandez-Pérez M, Goyal M, Demchuk A M, von Kummer R, Gallofré M, Dávalos A; REVASCAT Trial Investigators.. Thrombectomy within 8 hours after symptom onset in ischemic stroke. N Engl J Med. 2015; 372:2296-306) and it was started before the 90 minutes of the infusion of the composition with uric acid or placebo had elapsed.
To determine if the revascularization was successful the conventional technique of digital angiography by subtraction was used. Successful vessel revascularization was considered that with grade 2b (indicating reperfusion of from 50% to 90% of the damaged zone), or grade 3 (complete reperfusion of the damaged zone) in accordance with the modified Thrombolysis in Cerebral Infarction (hereinafter, mTICI) scale of 0 to 3.
In addition, certain parameters (death, incidence of intracranial hemorrhages and incidence of gout attacks) were measured in order to determine the safety of the new treatment (treatment of the present invention).

[2] = system: thromboembolism model of focal cerebral ischemia; details: rat thromboembolism model; synergic with rtPA; cited from earlier work
[3] = system: occlusion of the middle cerebral artery; details: adult rat; uric acid 24 hours before the occlusion or 1 hour after the reperfusion; cited from earlier work
[4] = system: patients with ischemic brain stroke not treated with mechanical thrombectomy; assay: Same type of study in ischemic brain stroke patients not treated with mechanical thrombectomy; format: in vivo, humans
Experimental: as §1
The same type of study was carried out with other subpopulations with ischemic brain stroke (not treated with mechanical thrombectomy, but the rest of the treatment and the procedure was the same).

[5] = system: patients with acute stroke; details: URICO-ICTUS phase 2b/3, cited from earlier work
hippocampus cells = details: culture of hippocampus cells; cited from earlier work
[6] = in words, with mechanical thrombectomy
[7] = with mechanical thrombectomy, uric acid group n = 24
[8] = Patients which consume alcohol, uric acid n = 10
[9] = Patients which have suffered previous brain stroke, uric acid n = 30
[10] = Patients with atrial fibrillation, uric acid n = 35
[11] = Patients with cardioembolism, uric acid n = 86
[12] = Patients with coronary disease, uric acid n = 31
[13] = Patients with diabetes, uric acid n = 55
[14] = Patients with dyslipidaemia, uric acid n = 81
[15] = Smoking patients, uric acid n = 35
[16] = Women patients, uric acid n = 100
[17] = general population not treated with mechanical thrombectomy, uric acid n = 187
[18] = in words, general population without mechanical thrombectomy

O=c1[nH]c(=O)c2[nH]c(=O)[nH]c2[nH]1 [Uric acid, uric acid]
successfulness in the revascularization, uric acid vs placebo ([1]; in words, mTICI grade 2b or 3): no significant differences
complete independence of the patients at 90 days (Barthel index score of 95-100), uric acid vs placebo [1, 6]: statistically significant and surprising improvement
good results at 90 days (mRS score of between 0-2), uric acid vs placebo [1, 6]: statistically significant and surprising improvement
growth of the infarcted zone at 72 hours from the treatment, uric acid vs placebo [1, 6]: statistically significant and surprising improvement
rest of measured parameters, uric acid vs placebo [1, 6]: positive and improvement tendency
safety: death, incidence of intracranial hemorrhages and incidence of gout attacks, uric acid vs placebo [1, 6]: no differences were observed
mTICI Score 0, number of patients ([1]; revascularization by digital subtraction angiography, uric acid 1000 mg i.v. + rtPA + mechanical thrombectomy, n = 24): 3
mTICI Score 0, share of group (in parentheses) ([1]; revascularization by digital subtraction angiography, uric acid group n = 24): (13)
mTICI Score 1, number of patients ([1]; uric acid group n = 24): 0
mTICI Score 2a, number of patients ([1]; uric acid group n = 24): 1
mTICI Score 2a, share of group (in parentheses) ([1]; uric acid group n = 24): (4)
mTICI Score 2b, number of patients ([1]; uric acid group n = 24): 7
mTICI Score 2b, share of group (in parentheses) ([1]; uric acid group n = 24): (29)
mTICI Score 2b/3 (successful revascularization), number of patients ([1]; uric acid group n = 24): 20
mTICI Score 2b/3 (successful revascularization), share of group (in parentheses) ([1]; uric acid group n = 24): (83)
mTICI Score 3, number of patients ([1]; uric acid group n = 24): 13
mTICI Score 3, share of group (in parentheses) ([1]; uric acid group n = 24): (54)
mRS score of between 0-2 at 90 días, % ([1]; with mechanical thrombectomy, uric acid 1000 mg i.v. + rtPA, n = 24): (66.6) %
Barthel index score of 95-100 at 90 days, % [1, 7]: (66.6) %
Growth of the infarcted zone at 72 hours of the treatment, mean [1, 7]: -33.2 mL
NIHSS score 0 at 90 days, % [1, 7]: (37.5) %
Volume of the infarcted zone at 72 hours of the treatment measured by means of magnetic resonance image of the brain, mean [1, 7]: 17.2
neuroprotective effect [2]: neuroprotective
lipid peroxidation [3]: reduces
reactive oxygen species accumulation [3]: suppresses
resulting cerebral infarction [3]: significantly reduces
Barthel index score of 95-100 at 90 days, % ([4]; Men patients, uric acid n = 87): (50.6) %
mRS score of between 0-2 at 90 dies, % ([4]; Men patients, uric acid n = 87): (51.7) %
Barthel index score of 95-100 at 90 days, % [4, 8]: (20) %
mRS score of between 0-2 at 90 dies, % [4, 8]: (40) %
Barthel index score of 95-100 at 90 days, % [4, 9]: (40) %
mRS score of between 0-2 at 90 dies, % [4, 9]: (43.3) %
Barthel index score of 95-100 at 90 days, % [4, 10]: (31.4) %
mRS score of between 0-2 at 90 dies, % [4, 10]: (42.9) %
Barthel index score of 95-100 at 90 days, % [4, 11]: (45.3) %
mRS score of between 0-2 at 90 dies, % [4, 11]: (48.8) %
Barthel index score of 95-100 at 90 days, % [4, 12]: (51.6) %
mRS score of between 0-2 at 90 dies, % [4, 12]: (45.2) %
Barthel index score of 95-100 at 90 days, % [4, 13]: (45.8) %
mRS score of between 0-2 at 90 dies, % [4, 13]: (45.5) %
Barthel index score of 95-100 at 90 days, % [4, 14]: (50.6) %
mRS score of between 0-2 at 90 dies, % [4, 14]: (49.4) %
mRS score of between 0-2 at 90 dies, % ([4]; Patients with hypertension (arterial pressure over 160 mmHg), uric acid n = 131): (48.9) %
Barthel index score of 95-100 at 90 days, % ([4]; Patients with hypertension, uric acid n = 131): (45.8) %
mRS score of between 0-2 at 90 dies, % ([4]; Patients with large vessel arteriosclerosis (arterial stenosis +2250%), uric acid n = 19): (31.6) %
Barthel index score of 95-100 at 90 days, % ([4]; Patients with large vessel arteriosclerosis, uric acid n = 19): (21.1) %
Barthel index score of 95-100 at 90 days, % [4, 15]: (42.9) %
mRS score of between 0-2 at 90 dies, % [4, 15]: (50) %
Barthel index score of 95-100 at 90 days, % [4, 16]: (42) %
mRS score of between 0-2 at 90 dies, % [4, 16]: (50) %
Barthel index score of 95-100 at 90 days, % [4, 17]: 45.6%
mRS score of between 0-2 at 90 dies, % [4, 17]: 44.7%
effect in the percentage of patients with Barthel index score 95-100 [4, 18]: only a minimal effect
effect in the percentage of patients with an mRS score of between 0 and 2 at 90 days [4, 18]: did not show a detectable effect
safety of uric acid in combination with the standard thrombolytic treatment (alteplase) [5]: safe
proportion of patients with excellent results at 90 days ([5]; combined with alteplase): no change was seen
protection against excitotoxic damage by glutamate (hippocampus cells): protects against excitotoxic damage by glutamate

— patent US10709710B2, “Composition comprising uric acid for the treatment treated with mechanical thrombectomy” (Hospital Clinic de Barcelona, priority 2017, dated 2020)
